Assay results as given in patent US20190209548A1, “LINKED DIARYL COMPOUNDS WITH ANTICANCER PROPERTIES AND METHODS OF USING THE SAME” (University of Maryland, College Park, priority 2014, published 2019).
Like-named read-outs stand apart in the source and are kept apart here.

How the values were obtained:
[1] = tested on: PC-3; assay: WST-1 IC50 determination, PC-3; assay type: cell-based, human; conditions: 72 hours, WST-1; for IC50: read-out: Anticancer activity IC50 ± SD, PC-3
Procedure: (§1) Cell lines and culturing. The following human cell lines were purchased from ATCC (ATCC, Manassas, Va.): prostate cancer cells (PC-3), triple negative breast cancer cells (MDA-MB-231), ovarian cancer cells (OVCAR-3), normal bone marrow (NBM) and normal fibroblast cells (MCR5A). MDA-MB-231 cells were grown at 37° C. with 5% CO2 atmosphere with DMEM (Life technologies, Carlsbad, Calif.) supplemented with heat-inactivated 10% (V/V) fetal bovine serum. OVCAR-3 and PC-3 cells were grown at 37° C. with 5% CO2 atmosphere with RPMI (Life technologies, Carlsbad, Calif.) supplemented with heat-inactivated 10% (V/V) fetal bovine serum. Cell lines were grown and maintained according to ATCC recommendations.
(§2) IC50 determination. Cell lines were seeded into 96-well plates the afternoon prior to treatment. Cell seeding number was determined by growing cells in log phase growth during drug treatment. Approximately 18 hours later, compounds were semi-serially diluted in dimethyl sulfoxide (DMSO) and then growth medium, and added to cells. Plates were incubated for 72 hours prior to addition of WST-1 (Promega, Madison Wis.). Plates were read after 4 additional hours of incubation at 37° C. using a Bio-Tek Synergy HT plate reader (Bio-Tek, Winooski, Vt.). Data was analyzed, graphed and IC50s generated using GraphPad Prism Software (Graphpad, La Jolla, Calif.).
(§3) IC50 determination: For the determination of IC50 for the azolamide class, the same protocol as described previously was followed.

[2] = tested on: OVCAR-3; assay: WST-1 IC50 determination, OVCAR-3; assay type: cell-based, human; conditions: 72 hours, WST-1; for IC50: read-out: Anticancer activity IC50 ± SD, OVCAR-3
Procedure: as §1, §2, §3

[3] = tested on: c-kit2; assay: FRET melting assay, c-kit2; assay type: binding; conditions: dual-labeled DNA 0.2 μM, DMZ analogues 1 μM, potassium cacodylate 60 mM pH 7.2
Procedure: (§4) Fluorescence resonance energy transfer (FRET) assay to determine Tm in absence and presence of ligands. Dual-labelled DNA was diluted from stock (50 μM) to 400 nM in 60 mM potassium cacodylate buffer (pH 7.2) and then annealed by heating at 85° C. for 10 min followed by cooling to room temperature in the heating block. Compounds were diluted from stock (20 mM in DMSO) to 2 μM in 60 mM cacodylate buffer (pH 7.2). 25 μL annealed DNA was added to 96-well plate followed by 25 μL diluted compounds. The sequences of labelled oligonucleotides were as follows: F21T 21-mer (5′-FAM-GGGTTAGGGTTAGGGTTAGGG-TAMRA-3′) (SEQ ID NO:11), c-kit2 26-mer (5′-FAM-CCCGGGCGGGCGCGAGGGAGGGGAGG-TAMRA-3′) (SEQ ID NO:12), k-RAS21R 21-mer (5′-FAM-AGGGCGGTGTGGGAAGAGGGA-TAMRA-3′) (SEQ ID NO:13), c-MYC 22-mer (5′-FAM-TGAGGGTGGGTAGGGTGGGTAA-TAMRA-3′) (SEQ ID NO:14) and duplex 26-mer (5′-FAM-TATAGCTATATTTTTTTATAGCTATA-TAMRA-3′) (SEQ ID NO: 15). Measurements were made in triplicate by using a LightCycler 480 System RT-PCR machine (Roche) and average values were reported. Fluorescence readings were made with excitation at 450-495 nm and detection at 515-545 nm, taken at intervals of 1.2° C./min in the range 25° C. to 95° C.

[4] = tested on: k-RAS21R; assay: FRET melting assay, k-RAS21R; assay type: binding; conditions: dual-labeled DNA 0.2 μM, DMZ analogues 1 μM, potassium cacodylate 60 mM pH 7.2
Procedure: as §4

[5] = tested on: MDA-MB-231; assay: WST-1 IC50 determination, MDA-MB-231; assay type: cell-based, human; conditions: 72 hours, WST-1; for IC50: read-out: Anticancer activity IC50 ± SD, MDA-MB-231
Procedure: as §1, §2, §3

[6] = tested on: c-MYC; assay: FRET melting assay, c-MYC; assay type: binding; conditions: dual-labeled DNA 0.2 μM, DMZ analogues 1 μM, potassium cacodylate 60 mM pH 7.2
Procedure: as §4

[7] = tested on: F21T; assay: FRET melting assay, F21T; assay type: binding; conditions: dual-labeled DNA 0.2 μM, DMZ analogues 1 μM, potassium cacodylate 60 mM pH 7.2
Procedure: as §4

[8] = tested on: duplex; assay: FRET melting assay, duplex DNA; assay type: binding; conditions: dual-labeled DNA 0.2 μM, DMZ analogues 1 μM, potassium cacodylate 60 mM pH 7.2
Procedure: as §4

[9] = Human liver microsome stability; assay type: in vitro ADME
Excerpt: An established method to determine the pharmacokinetic clearance of a compound in humans is to measure the degradation of the compound in the presence of human liver microsomes. The following is the half-lives of the four compounds in human liver microsomes: […]

Row | half-life ([9]; human, liver microsomes, read-out: NADPH-dependent T½) | half-life ([9]; human, liver microsomes, read-out: NADPH-independent T½) | SMILES | IC50 [1] | IC50 [2] | ΔTm c-kit2 [3] | ΔTm k-RAS21R [4] | IC50 [5] | ΔTm c-MYC [6] | ΔTm F21T [7] | ΔTm duplex [8] | Anticancer activity IC50 ± SD, PC-3 [1] | Anticancer activity IC50 ± SD, OVCAR-3 [2] | Anticancer activity IC50 ± SD, MDA-MB-231 [5] | NADPH-independent T½ ([9]; human liver microsomes) | half-life ([9]; human liver microsomes, read-out: NADPH-dependent T½)
1 | – | – | N=C(N)c1ccc(N=NNc2cccc(C#Cc3ccccn3)c2)cc1 [DMZ8] | 10.4 ± 1.4 µM | 10.7 ± 1.5 µM | 8.04 ± 0.26 °C | 14.62 ± 0.45 °C | 14.4 ± 0.9 µM | 9.32 ± 0.00 °C | 4.75 ± 0.00 °C | NE (NE means not effective binding (ΔTm < 1° C.)) | – | – | – | – | –
2 | – | – | COc1ccc(C#Cc2cccc(NN=Nc3ccc(C(=N)N)cc3)c2)cc1 [DMZ10] | 5 ± 0.9 µM | 5.2 ± 0.4 µM | 5.48 ± 0.00 °C | 1.65 ± 0.26 °C | 5.5 µM | 8.06 ± 0.26 °C | 4.39 ± 0.26 °C | NE (NE means not effective binding (ΔTm < 1° C.)) | – | – | – | – | –
3 | – | – | C#Cc1ccccc1NN=Nc1ccc(C(=N)N)cc1 [DMZ11] | > 50 µM | > 25 µM | 7.68 ± 0.00 °C | 2.19 ± 0.26 °C | 23.2 µM | 8.77 ± 0.00 °C | 4.20 ± 0.00 °C | NE (NE means not effective binding (ΔTm < 1° C.)) | – | – | – | – | –
4 | – | – | N=C(N)c1ccc(N=NNc2ccccc2C#Cc2ccccc2)cc1 [DMZ12] | 5.3 ± 0.2 µM | 8.1 ± 0.5 µM | 5.12 ± 0.26 °C | 2.19 ± 0.26 °C | 5.1 ± 0.4 µM | 7.15 ± 0.00 °C | 4.20 ± 0.00 °C | NE (NE means not effective binding (ΔTm < 1° C.)) | – | – | – | – | –
5 | – | – | N=C(N)c1ccc(N=NNc2ccncc2)cc1 [DMZ14] | – | – | 6.58 ± 0.78 °C | 2.19 ± 0.26 °C | – | 6.97 ± 0.26 °C | 4.20 ± 0.00 °C | NE (NE means not effective binding (ΔTm < 1° C.)) | NE (NE means not effective. Cell viability was the same or greater than 75% of the DMSO control at 20 μM compound concentration.) | NE (NE means not effective. Cell viability was the same or greater than 75% of the DMSO control at 20 μM compound concentration.) | NE (NE means not effective. Cell viability was the same or greater than 75% of the DMSO control at 20 μM compound concentration.) | – | –
6 | – | – | CC(C)NC(=N)c1ccc(/N=N/c2c(N)ncc3ccc(Br)cc23)cc1 [HSY430-5] | – | – | – | – | – | – | – | – | – | – | – | >240 min | > 240 min
7 | 154 min | 143 min | CCCCNC(=N)c1ccc(/N=N/c2c(N)ncc3ccc(Br)cc23)cc1 [HSY430-6] | – | – | – | – | – | – | – | – | – | – | – | – | –
8 | – | – | Nc1cccc(C#Cc2ccc(F)cc2)c1 [compound 15, reference compound] | – | – | – | – | – | – | – | – | NE (NE means not effective. Cell viability was the same or greater than 75% of the DMSO control at 20 μM compound concentration.) | NE (NE means not effective. Cell viability was the same or greater than 75% of the DMSO control at 20 μM compound concentration.) | NE (NE means not effective. Cell viability was the same or greater than 75% of the DMSO control at 20 μM compound concentration.) | – | –
